Test results taken from patent publication US10941114B2, “Small molecule lipid II inhibitors” (University Of Maryland, Baltimore, priority 2015, dated 2021).
Where a name gives a salt, the structure may show the parent alone. Read-outs that look alike come from different tables or passages of the source.

Legend:
Bacillus anthracis = type: cell-based
Escherichia coli = assay: Antibacterial activity assay (MIC, broth dilution); type: cell-based
Enterococcus faecium = assay: Antibacterial activity assay (MIC, broth dilution); type: cell-based; design: Bacterial Killing E. faecium: unit: ug/mL; details: for MIC: Enterococcus faecium
In short: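 Broth dilution MIC per CLSI (M07-A10) in cation-adjusted Mueller Hinton broth with 10% brain-heart infusion; MIC is the lowest concentration preventing visible growth, in μg/mL. Some compounds were run by broth microdilution.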

Burkholderia mallei = type: cell-based; details: 23344; according to DOD guidelines
Enterococcus faecalis = assay: Antibacterial activity assay (MIC, broth dilution); type: cell-based; details: for MIC: Enterococcus faecalis
[1] = Pharmacokinetic study in mice (plasma concentration by LC/MS/MS)
[2] = in vivo
[3] = In vivo efficacy of BAS00127538 (bacteria in spleen and blood); details: samples collected at 50 hours post-infection from treated animals
Protocol: To determine the efficacy of […] in vivo, samples were collected from vehicle-treated animals at 20 hours or at 50 hours post-infection from vancomycin- and BAS-treated animals.

Yersinia pestis = type: cell-based; details: CO92; according to DOD guidelines
Staphylococcus aureus = assay: Antibacterial activity assay (MIC, broth dilution); type: cell-based; design: S. aureus Killing / Bacterial Killing S. aureus: unit not given here
in vivo = details: male, iv, […]
Streptococcus pneumoniae = assay: Antibacterial activity assay (MIC, broth dilution); type: cell-based
Pseudomonas aeruginosa = assay: Antibacterial activity assay (MIC, broth dilution); type: cell-based; details: MMX#-ATCC# 103-27853
[4] = tested on: Burkholderia pseudomallei; type: cell-based; details: K96243; according to DOD guidelines
[5] = Maximum Tolerated Dose (MTD) and in vivo toxicity at the MTD; details: mouse, in vivo, ip
CYP2D6 = CYP2D6 (Homo sapiens, UniProt P10635); assay: P450 enzyme inhibition (IC50 fluorescence); type: in vitro ADME; details: substrate AMMC
CYP2D6, sequence (P10635 whole entry): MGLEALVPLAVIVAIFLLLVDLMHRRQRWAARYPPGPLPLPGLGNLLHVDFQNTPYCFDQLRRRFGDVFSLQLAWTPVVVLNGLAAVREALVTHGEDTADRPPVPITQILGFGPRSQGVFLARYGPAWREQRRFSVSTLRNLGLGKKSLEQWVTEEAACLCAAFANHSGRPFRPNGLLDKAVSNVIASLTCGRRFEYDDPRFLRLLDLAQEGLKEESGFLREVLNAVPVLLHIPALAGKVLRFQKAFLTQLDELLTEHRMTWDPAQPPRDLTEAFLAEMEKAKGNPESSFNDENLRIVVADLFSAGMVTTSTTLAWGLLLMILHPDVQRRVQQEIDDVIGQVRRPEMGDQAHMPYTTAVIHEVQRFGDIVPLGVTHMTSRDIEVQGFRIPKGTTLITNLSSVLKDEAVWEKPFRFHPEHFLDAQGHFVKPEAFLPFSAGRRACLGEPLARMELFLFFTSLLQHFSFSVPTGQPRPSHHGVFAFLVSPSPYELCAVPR

CYP2C19 = CYP2C19 (Homo sapiens, UniProt P33261); assay: P450 enzyme inhibition (IC50 fluorescence); type: in vitro ADME; details: substrate CEC: 3-cyano-7-ethoxycoumarin
CYP2C19, sequence (P33261 whole entry): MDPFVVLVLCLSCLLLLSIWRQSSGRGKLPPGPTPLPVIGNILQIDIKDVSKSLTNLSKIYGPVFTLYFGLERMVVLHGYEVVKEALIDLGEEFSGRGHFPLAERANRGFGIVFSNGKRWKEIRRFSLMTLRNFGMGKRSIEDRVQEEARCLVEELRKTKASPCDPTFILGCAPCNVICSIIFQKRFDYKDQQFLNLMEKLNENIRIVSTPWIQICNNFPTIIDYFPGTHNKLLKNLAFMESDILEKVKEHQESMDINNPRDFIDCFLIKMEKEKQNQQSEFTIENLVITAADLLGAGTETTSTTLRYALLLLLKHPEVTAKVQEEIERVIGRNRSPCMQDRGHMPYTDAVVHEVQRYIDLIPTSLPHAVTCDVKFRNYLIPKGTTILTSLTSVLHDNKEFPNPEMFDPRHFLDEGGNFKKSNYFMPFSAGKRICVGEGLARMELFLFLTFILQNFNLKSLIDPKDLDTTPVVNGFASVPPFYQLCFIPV

[6] = Plasma / serum stability (LC/MS/MS); type: in vitro ADME; details: 10 μg/mL, 50% serum
CYP3A4 = CYP3A4 (Homo sapiens, UniProt P08684); assay: P450 enzyme inhibition (IC50 fluorescence); type: in vitro ADME
CYP3A4, sequence (P08684 whole entry): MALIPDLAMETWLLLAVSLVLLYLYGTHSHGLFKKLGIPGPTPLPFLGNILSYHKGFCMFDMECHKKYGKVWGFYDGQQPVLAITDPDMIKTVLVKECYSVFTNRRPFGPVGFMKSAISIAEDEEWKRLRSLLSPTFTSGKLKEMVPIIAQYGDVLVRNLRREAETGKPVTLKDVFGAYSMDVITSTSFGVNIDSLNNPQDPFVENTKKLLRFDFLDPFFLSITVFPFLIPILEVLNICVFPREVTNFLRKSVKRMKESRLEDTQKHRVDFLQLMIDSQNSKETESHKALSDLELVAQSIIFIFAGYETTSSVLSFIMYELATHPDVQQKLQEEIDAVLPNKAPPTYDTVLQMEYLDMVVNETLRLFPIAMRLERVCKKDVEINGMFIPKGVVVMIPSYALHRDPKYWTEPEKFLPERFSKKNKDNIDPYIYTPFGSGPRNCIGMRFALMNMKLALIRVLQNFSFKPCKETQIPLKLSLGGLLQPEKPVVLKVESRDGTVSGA

HeLa cells = assay: Cytotoxicity testing (CC50, MTS assay)
[7] = cation-adjusted Mueller Hinton broth, 10% BHI, read-out: MIC E. faecium C110914
[8] = cation-adjusted Mueller Hinton broth, 10% BHI, read-out: MIC E. faecium IH79985
[9] = cation-adjusted Mueller Hinton broth, 10% BHI, read-out: MIC E. faecium S1559
[10] = cation-adjusted Mueller Hinton broth, 10% BHI, read-out: MIC E. faecalis 51299
[11] = cation-adjusted Mueller Hinton broth, 10% BHI, read-out: MIC E. faecalis 51575
[12] = cation-adjusted Mueller Hinton broth, 10% BHI, read-out: MIC E. faecalis C99707
[13] = IV administration, single dose […], mice (n=3)
[14] = comparator values repeated from Table 4 (IV, […])
[15] = determined as in Example 1E (MIC)
[16] = PO administration, single oral dose 5 mg/kg, mice (n=3)

CN1/C(=C/C=C/c2cc(-c3ccccc3)cc(-c3ccccc3)[o+]2)C(C)(C)c2ccccc21 [BAS00127538, 1-methyl-2,4-diphenyl-6-((1E,3E)-3-(1,3,3-trimethylindolin-2-ylidene)pro-p-1-en-1yl)pyryl-1-ium) tetrafluoroborate]
MIC Bacillus anthracis (spores)* (Bacillus anthracis; Ames, spores, according to DOD guidelines): 0.5 µg/mL | MIC Bacillus anthracis* (Bacillus anthracis; Ames, according to DOD guidelines): 0.5 µg/mL | MIC Bacillus anthracis Sterne (Bacillus anthracis; MMX#-ATCC# 109-NA): 0.5 µg/mL | MIC Escherichia coli (Escherichia coli; MMX#-ATCC# 102.25922): 4 µg/mL | MIC (Enterococcus faecium; [7]): 2 µg/mL | MIC (Enterococcus faecium; [8]): 2 µg/mL | MIC (Enterococcus faecium; [9]): 2 µg/mL | MIC Burkholderia mallei* (Burkholderia mallei): > 64 µg/mL | MIC (Enterococcus faecalis; [10]): 2 µg/mL | MIC (Enterococcus faecalis; [11]): 2 µg/mL | MIC (Enterococcus faecalis; [12]): 2 µg/mL | MIC Enterococcus faecalis (Enterococcus faecalis; MMX#-ATCC# 101-29212): 1 µg/mL | MIC Enterococcus faecalis (VRE) (Enterococcus faecalis; MMX#-ATCC# 848-NA, vancomycin-resistant): 1 µg/mL | Cl_obs [1, 13]: 711 mL/min/kg | T1/2 [1, 13]: 13.6 min | Vss_obs [1, 13]: 12.2 L/kg | T1/2 [1, 14]: 13.6 min | AUClast/D ([1]; comparator values repeated from Table 4 (IV, […]), AUClast/D): 26.9 ng·h/mL | volume of distribution ([1]; intravenous administration, single dose […], mice): 12.2 L/kg | detection in plasma ([2]; mouse, po, 5 mg/kg): could not be detected | survival of treated animals [3]: One animal treated with BAS did not survive beyond 28 hours | MIC Yersinia pestis* (Yersinia pestis): 8 µg/mL | MIC Staphylococcus aureus (Staphylococcus aureus; MMX#-ATCC# 100-29213): 0.5 µg/mL | half-life (in vivo; CD1, mouse, plasma): 13.2 min | MIC Streptococcus pneumoniae (PRSP) (Streptococcus pneumoniae; MMX#-ATCC# 884-NA, penicillin-resistant): 8 µg/mL | MIC Streptococcus pneumoniae (Streptococcus pneumoniae; MMX#-ATCC# 1195-49619): 8 µg/mL | MIC Pseudomonas aeruginosa (Pseudomonas aeruginosa): > 8 µg/mL | MIC Burkholderia pseudomallei* [4]: 64 µg/mL

CN(C)c1ccc(/C=C/c2cc(-c3ccc(Br)cc3)cc(-c3ccc(Br)cc3)[o+]2)cc1 [Compound 6jc48-1, (E)-2,4-bis(4-bromophenyl)-6-(4-(dimethylamino)styryl)pyrylium boron tetrafluoride salt]
MTD [5]: ≤ 100 mg/kg | Bacterial Killing E. coli (Escherichia coli; [15]): >64 | MIC (Enterococcus faecium; [7]): 4 µg/mL | MIC (Enterococcus faecium; [8]): 8 µg/mL | MIC (Enterococcus faecium; [9]): 2 µg/mL | MIC (Enterococcus faecium; clinical isolates sensitive to linezolid and daptomycin, n = 5, read-out: MIC E. faecium* clinical isolates): 4 to 16 µg/mL | Bacterial Killing E. faecium (Enterococcus faecium; [15]): 4 | IC50 (CYP2D6): > 10 µM | IC50 (CYP2C19): > 10 µM | MIC (Enterococcus faecalis; MIC quoted with the macromolecular synthesis data (FIG. 11), strain not given, MMS run on E. faecalis EF1509, read-out: MIC): 4 µg/mL | MIC (Enterococcus faecalis; [10]): 4 µg/mL | MIC (Enterococcus faecalis; [11]): 2 µg/mL | MIC (Enterococcus faecalis; [12]): 2 µg/mL | MIC (Enterococcus faecalis; clinical isolates sensitive to linezolid and daptomycin, n = 5, read-out: MIC E. faecalis* clinical isolates): 4 to 16 µg/mL | AUClast/D [1, 13]: 5.36e+08 ± 4.7e+07 ng·h/mL | Cl_obs [1, 13]: 23.6 ± 1.7 mL/min/kg | T1/2 [1, 13]: 798 ± 108 min | AUCInf [1, 16]: 90 ng·h/mL | AUClast [1, 16]: 46.9 ng·h/mL | Cmax [1, 16]: 19.1 ng/mL | Finf (inferred bioavailability) [1, 16]: 2.54% | Flast (bioavailability at last time point) [1, 16]: 1.9% | T1/2 [1, 16]: 167 min | Cl—obs [1, 14]: 23.6 ± 1.7 mL/min/kg | T1/2 [1, 14]: 798 ± 108 min | AUCextrap ([2]; CD1, mouse, po, 5 mg/kg): 48.6% | Vss_obs ([2]; CD1, mouse, po, 5 mg/kg): 1.75 L/kg | Volume of distribution at equilibrium (Vs) ([2]; male, CD1, mouse, iv, […]): 22.8 | Vss_obs ([2]; male, CD1, mouse, iv, […]): 22.8 ± 2.9 L/kg | stability in serum ([6]; after 2 hours): stable after 2 hours in serum | compound remaining ([6]; after 19 hours): 46% | Bacterial Killing S. aureus (Staphylococcus aureus; [15]): 16 | Vd (in vivo; CD1, mouse, plasma): ~23 L/kg | Vd (in vivo; mouse, in vivo): 22.8 ± 2.9 L/kg | IC50 (CYP3A4; substrate BFC: 7-benzoyloxy-4-triflluoromethyl coumarin, read-out: P450 enzyme inhibition (IC50 fluorescence) CYP3A4/BFC): 1.3 µM | IC50 (CYP3A4; substrate DBF: dibenzylfluorescein, read-out: P450 enzyme inhibition (IC50 fluorescence) CYP3A4/DBF): > 10 µM | reduction in cytotoxicity compared to the parent BAS00127538 (HeLa cells): 50 fold
